Where a name gives a salt, the structure may show the parent alone. Read-outs that look alike come from different tables or passages of the source.
Legend:
Experiment in all cases: AK assay 384-well format, Prestwick library screening
[1] = test system: A. baumannii strain 98-37-09; type: cell-based, Acinetobacter baumannii; conditions: 50 μM final drug concentration; for fold induction at 50 µM: Acinetobacter baumannii, 983709, 3 h
K. pneumoniae = type: cell-based, Klebsiella pneumoniae; conditions: 50 μM final drug concentration; for fold induction at 50 µM: Klebsiella pneumoniae, 3 h
E. cloacae = type: cell-based, Enterobacter cloacae; conditions: 50 μM final drug concentration; for fold induction at 50 µM: Enterobacter cloacae, 3 h
E. faecium = type: cell-based, Enterococcus faecium; conditions: 50 μM final drug concentration; for fold induction at 50 µM: Enterococcus faecium, 3 h
E. coli = type: cell-based, Escherichia coli; conditions: 50 μM final drug concentration; for fold induction at 50 µM: Escherichia coli, 3 h
[2] = test system: S. aureus strain USA300-0114; type: cell-based, Staphylococcus aureus; conditions: 50 μM final drug concentration; for fold induction at 50 µM: Staphylococcus aureus, USA300, 3 h
P. aeruginosa = type: cell-based, Pseudomonas aeruginosa; conditions: 50 μM final drug concentration; for fold induction at 50 µM: Pseudomonas aeruginosa, 3 h
[3] = 384-well format, cutoff for positive-scoring molecules 3-fold increase
[4] = planktonic A. baumannii, cutoff for positive-scoring molecules 3-fold increase, read-out: AK-based Prestwick Library Screening Results, A. baumannii (increase in extracellular AK activity)
[5] = planktonic K. pneumoniae, cutoff for positive-scoring molecules 3-fold increase, read-out: AK-based Prestwick Library Screening Results, K. pneumoniae (increase in extracellular AK activity)
[6] = planktonic E. cloacae, cutoff for positive-scoring molecules 3-fold increase, read-out: AK-based Prestwick Library Screening Results, E. cloacae (increase in extracellular AK activity)
[7] = planktonic E. faecium, cutoff for positive-scoring molecules 3-fold increase, read-out: AK-based Prestwick Library Screening Results, E. faecium (increase in extracellular AK activity)
[8] = planktonic E. coli, cutoff for positive-scoring molecules 3-fold increase, read-out: AK-based Prestwick Library Screening Results, E. coli (increase in extracellular AK activity)
[9] = planktonic S. aureus, cutoff for positive-scoring molecules 3-fold increase, read-out: AK-based Prestwick Library Screening Results, S. aureus (increase in extracellular AK activity)
[10] = planktonic P. aeruginosa, cutoff for positive-scoring molecules 3-fold increase, read-out: AK-based Prestwick Library Screening Results, P. aeruginosa (increase in extracellular AK activity)
[11] = planktonic A. baumannii, positive cutoff 3-fold increase, read-out: AK-based Prestwick library screening result, A. baumannii (fold increase in extracellular AK activity)
[12] = planktonic K. pneumoniae, positive cutoff 3-fold increase, read-out: AK-based Prestwick library screening result, K. pneumoniae (fold increase in extracellular AK activity)
[13] = planktonic E. cloacae, positive cutoff 3-fold increase, read-out: AK-based Prestwick library screening result, E. cloacae (fold increase in extracellular AK activity)
[14] = planktonic E. faecium, positive cutoff 3-fold increase, read-out: AK-based Prestwick library screening result, E. faecium (fold increase in extracellular AK activity)
[15] = planktonic E. coli, positive cutoff 3-fold increase, read-out: AK-based Prestwick library screening result, E. coli (fold increase in extracellular AK activity)
[16] = planktonic S. aureus, positive cutoff 3-fold increase, read-out: AK-based Prestwick library screening result, S. aureus (fold increase in extracellular AK activity)
[17] = planktonic P. aeruginosa, positive cutoff 3-fold increase, read-out: AK-based Prestwick library screening result, P. aeruginosa (fold increase in extracellular AK activity)

Compound: C[C@]12CCC(=O)C=C1CC[C@@H]1[C@@H]2C(=O)C[C@@]2(C)[C@H]1CC[C@]2(O)C(=O)CO [Cortisone]
- AK-based Prestwick Library Screening Results, A. baumannii (increase in extracellular AK activity) [1, 3]: 1.0
- AK-based Prestwick Library Screening Results, K. pneumoniae (increase in extracellular AK activity) (K. pneumoniae; [3]): 0.8
- AK-based Prestwick Library Screening Results, E. cloacae (increase in extracellular AK activity) (E. cloacae; [3]): 1.2
- AK-based Prestwick Library Screening Results, E. faecium (increase in extracellular AK activity) (E. faecium; [3]): 0.9
- AK-based Prestwick Library Screening Results, E. coli (increase in extracellular AK activity) (E. coli; [3]): 0.9
- AK-based Prestwick Library Screening Results, S. aureus (increase in extracellular AK activity) [2, 3]: 0.8
- AK-based Prestwick Library Screening Results, P. aeruginosa (increase in extracellular AK activity) (P. aeruginosa; [3]): 1.0

Compound: COC(=O)[C@H]1[C@H]2C[C@H]3c4[nH]c5ccccc5c4CCN3C[C@@H]2CC[C@@H]1O.Cl [Corynanthine hydrochloride]
- AK-based Prestwick Library Screening Results, A. baumannii (increase in extracellular AK activity) ([1]; planktonic A. baumannii, cutoff for positive-scoring molecules 3-fold increase): 0.6
- AK-based Prestwick Library Screening Results, K. pneumoniae (increase in extracellular AK activity) (K. pneumoniae; planktonic K. pneumoniae, cutoff for positive-scoring molecules 3-fold increase): 0.6
- AK-based Prestwick Library Screening Results, E. cloacae (increase in extracellular AK activity) (E. cloacae; planktonic E. cloacae, cutoff for positive-scoring molecules 3-fold increase): 0.8
- AK-based Prestwick Library Screening Results, E. faecium (increase in extracellular AK activity) (E. faecium; planktonic E. faecium, cutoff for positive-scoring molecules 3-fold increase): 1.0
- AK-based Prestwick Library Screening Results, E. coli (increase in extracellular AK activity) (E. coli; planktonic E. coli, cutoff for positive-scoring molecules 3-fold increase): 0.7
- AK-based Prestwick Library Screening Results, S. aureus (increase in extracellular AK activity) ([2]; planktonic S. aureus, cutoff for positive-scoring molecules 3-fold increase): 0.7
- AK-based Prestwick Library Screening Results, P. aeruginosa (increase in extracellular AK activity) (P. aeruginosa; planktonic P. aeruginosa, cutoff for positive-scoring molecules 3-fold increase): 0.7

Compound: O=C(O)c1cc(=O)c2c(OCC(O)COc3cccc4oc(C(=O)O)cc(=O)c34)cccc2o1 [Cromolyn disodium salt]
- fold induction at 50 µM ([1]; planktonic, cutoff for positive-scoring molecules 3-fold increase, read-out: AK-based Prestwick Library Screening Results, A. baumannii (fold increase in extracellular AK activity)): 0.9
- fold induction at 50 µM (K. pneumoniae; planktonic, cutoff for positive-scoring molecules 3-fold increase, read-out: AK-based Prestwick Library Screening Results, K. pneumoniae (fold increase in extracellular AK activity)): 0.7
- fold induction at 50 µM (E. cloacae; planktonic, cutoff for positive-scoring molecules 3-fold increase, read-out: AK-based Prestwick Library Screening Results, E. cloacae (fold increase in extracellular AK activity)): 1
- fold induction at 50 µM (E. faecium; planktonic, cutoff for positive-scoring molecules 3-fold increase, read-out: AK-based Prestwick Library Screening Results, E. faecium (fold increase in extracellular AK activity)): 0.9
- fold induction at 50 µM (E. coli; planktonic, cutoff for positive-scoring molecules 3-fold increase, read-out: AK-based Prestwick Library Screening Results, E. coli (fold increase in extracellular AK activity)): 0.7
- fold induction at 50 µM ([2]; planktonic, cutoff for positive-scoring molecules 3-fold increase, read-out: AK-based Prestwick Library Screening Results, S. aureus (fold increase in extracellular AK activity)): 0.7
- fold induction at 50 µM (P. aeruginosa; planktonic, cutoff for positive-scoring molecules 3-fold increase, read-out: AK-based Prestwick Library Screening Results, P. aeruginosa (fold increase in extracellular AK activity)): 0.8

Compound: CC=CC(=O)N(CC)c1ccccc1C [Crotamiton]
- AK-based Prestwick Library Screening Results, A. baumannii (fold increase in extracellular AK activity) ([1]; […]): 1.3
- AK-based Prestwick Library Screening Results, K. pneumoniae (fold increase in extracellular AK activity) (K. pneumoniae; […]): 1.1
- AK-based Prestwick Library Screening Results, E. cloacae (fold increase in extracellular AK activity) (E. cloacae; […]): 1.3
- AK-based Prestwick Library Screening Results, E. faecium (fold increase in extracellular AK activity) (E. faecium; […]): 1.1
- AK-based Prestwick Library Screening Results, E. coli (fold increase in extracellular AK activity) (E. coli; […]): 1.5
- AK-based Prestwick Library Screening Results, S. aureus (fold increase in extracellular AK activity) ([2]; […]): 1.3
- AK-based Prestwick Library Screening Results, P. aeruginosa (fold increase in extracellular AK activity) (P. aeruginosa; […]): 1.3

Compound: CN1CCN(C(c2ccccc2)c2ccccc2)CC1 [Cyclizine hydrochloride]
- fold induction at 50 µM [1, 4]: 1
- fold induction at 50 µM (K. pneumoniae; [5]): 0.8
- fold induction at 50 µM (E. cloacae; [6]): 0.9
- fold induction at 50 µM (E. faecium; [7]): 1
- fold induction at 50 µM (E. coli; [8]): 0.9
- fold induction at 50 µM [2, 9]: 0.9
- fold induction at 50 µM (P. aeruginosa; [10]): 0.9

Compound: CN(C)CCC=C1c2ccccc2C=Cc2ccccc21 [Cyclobenzaprine hydrochloride]
- fold induction at 50 µM [1, 4]: 1.2
- fold induction at 50 µM (K. pneumoniae; [5]): 0.9
- fold induction at 50 µM (E. cloacae; [6]): 1.2
- fold induction at 50 µM (E. faecium; [7]): 1
- fold induction at 50 µM (E. coli; [8]): 1.3
- fold induction at 50 µM [2, 9]: 1
- fold induction at 50 µM (P. aeruginosa; [10]): 1.1

Compound: C[C@@H]1C[C@@H]([C@H](O)CC2CC(=O)NC(=O)C2)C(=O)[C@@H](C)C1 [Cycloheximide]
- fold induction at 50 µM ([1]; […], read-out: AK-based Prestwick Library Screening Results, A. baumannii (fold increase in extracellular AK activity)): 1.2
- fold induction at 50 µM (K. pneumoniae; […], read-out: AK-based Prestwick Library Screening Results, K. pneumoniae (fold increase in extracellular AK activity)): 1
- fold induction at 50 µM (E. cloacae; […], read-out: AK-based Prestwick Library Screening Results, E. cloacae (fold increase in extracellular AK activity)): 0.9
- fold induction at 50 µM (E. faecium; […], read-out: AK-based Prestwick Library Screening Results, E. faecium (fold increase in extracellular AK activity)): 1
- fold induction at 50 µM (E. coli; […], read-out: AK-based Prestwick Library Screening Results, E. coli (fold increase in extracellular AK activity)): 1.3
- fold induction at 50 µM ([2]; […], read-out: AK-based Prestwick Library Screening Results, S. aureus (fold increase in extracellular AK activity)): 1.1
- fold induction at 50 µM (P. aeruginosa; […], read-out: AK-based Prestwick Library Screening Results, P. aeruginosa (fold increase in extracellular AK activity)): 1.1

Compound: NS(=O)(=O)c1cc2c(cc1Cl)NC(CC1CCCC1)NS2(=O)=O (centres unmarked) [Cyclopenthiazide]
- fold induction at 50 µM [1, 11]: 0.8
- fold induction at 50 µM (K. pneumoniae; [12]): 0.8
- fold induction at 50 µM (E. cloacae; [13]): 1.2
- fold induction at 50 µM (E. faecium; [14]): 0.9
- fold induction at 50 µM (E. coli; [15]): 0.8
- fold induction at 50 µM [2, 16]: 0.7
- fold induction at 50 µM (P. aeruginosa; [17]): 0.8

Compound: CN(C)CCOC(=O)C(c1ccccc1)C1(O)CCCC1 (centres unmarked) [Cyclopentolate hydrochloride]
- fold induction at 50 µM [1, 11]: 1
- fold induction at 50 µM (K. pneumoniae; [12]): 1
- fold induction at 50 µM (E. cloacae; [13]): 1.3
- fold induction at 50 µM (E. faecium; [14]): 1
- fold induction at 50 µM (E. coli; [15]): 1.2
- fold induction at 50 µM [2, 16]: 1.1
- fold induction at 50 µM (P. aeruginosa; [17]): 1.1

Compound: CN1CCC(=C2c3ccccc3C=Cc3ccccc32)CC1 [Cyproheptadine hydrochloride]
- fold induction at 50 µM ([1]; 384-well format, cutoff for positive-scoring molecules 3-fold increase, read-out: AK-based Prestwick Library Screening Results, A. baumannii (increase in extracellular AK activity)): 0.9
- fold induction at 50 µM (K. pneumoniae; 384-well format, cutoff for positive-scoring molecules 3-fold increase, read-out: AK-based Prestwick Library Screening Results, K. pneumoniae (increase in extracellular AK activity)): 0.6
- fold induction at 50 µM (E. cloacae; 384-well format, cutoff for positive-scoring molecules 3-fold increase, read-out: AK-based Prestwick Library Screening Results, E. cloacae (increase in extracellular AK activity)): 0.9
- fold induction at 50 µM (E. faecium; 384-well format, cutoff for positive-scoring molecules 3-fold increase, read-out: AK-based Prestwick Library Screening Results, E. faecium (increase in extracellular AK activity)): 0.9
- fold induction at 50 µM (E. coli; 384-well format, cutoff for positive-scoring molecules 3-fold increase, read-out: AK-based Prestwick Library Screening Results, E. coli (increase in extracellular AK activity)): 0.9
- fold induction at 50 µM ([2]; 384-well format, cutoff for positive-scoring molecules 3-fold increase, read-out: AK-based Prestwick Library Screening Results, S. aureus (increase in extracellular AK activity)): 0.6
- fold induction at 50 µM (P. aeruginosa; 384-well format, cutoff for positive-scoring molecules 3-fold increase, read-out: AK-based Prestwick Library Screening Results, P. aeruginosa (increase in extracellular AK activity)): 0.9

Compound: CC(=O)O[C@]1(C(C)=O)CC[C@H]2[C@@H]3C=C(Cl)C4=CC(=O)[C@@H]5C[C@@H]5[C@]4(C)[C@H]3CC[C@@]21C [Cyproterone acetate]
- fold induction at 50 µM [1, 11]: 0.8
- fold induction at 50 µM (K. pneumoniae; [12]): 0.7
- fold induction at 50 µM (E. cloacae; [13]): 1.4
- fold induction at 50 µM (E. faecium; [14]): 1
- fold induction at 50 µM (E. coli; [15]): 0.8
- fold induction at 50 µM [2, 16]: 0.6
- fold induction at 50 µM (P. aeruginosa; [17]): 0.8
